Results published in ChEMBL document CHEMBL6134905, “Double Swords in One: Novel Selective PI3K/110β PROTAC Degraders for the Treatment of Multidrug-Resistant Cancer by Activating ERS and Inhibiting P-gp” (J Med Chem, 2025).
Activity calls are given as the source filed them. No cut-off for these calls is given here.

Tests used:
MCF7/ADM [1] = assay: Induction of apoptosis in human MCF7/ADM cells assessed as increase in caspase-8 expression at 12.5 uM incubated for 24 hrs by Western blot analysis; type: functional, cell-based
MCF7/ADM [2] = assay: Antitumor activity against human MCF7/ADM cells xenografted in BALB/c mouse assessed as increase in cleaved caspase-9 expression in tumor at 50 mg/kg, ip by Western blot analysis; type: functional, organism-based
A549/CDDP [3] = assay: Induction of apoptosis in human A549/DDP cells assessed as increase in cleaved caspase-8 expression at 12.5 uM incubated for 24 hrs by Western blot analysis; type: functional, cell-based
MCF7/ADM [4] = assay: Antitumor activity against human MCF7/ADM cells xenografted in BALB/c mouse assessed as decrease in bcl-2 expression in tumor at 50 mg/kg, ip by Western blot analysis; type: functional, organism-based
MCF7/ADM [5] = assay: Induction of ROS level in human MCF7/ADM cells at 25 uM measured for 24 hrs by MitoSOX staining based analysis; type: functional, cell-based
[6] = Toxicity in BALB/c mouse xenografted with human MCF7/ADM cells assessed as kidney damage at 50 mg/kg, ip by H and E staining based analysis; type: organism-based; conditions: in vivo
[7] = target: T1, ATP-dependent translocase ABCB1 (Homo sapiens, UniProt P08183); assay: Inhibition of P-gp in human MCF7/ADM cells assessed as increase in intracellular Rh123 accumulation at 6.25 to 25 uM incubated for 24 hrs by flow cytometry analysis; type: cell-based; conditions: dose 6.25-25 µM
MCF7/ADM [8] = assay: Upregulation of PERK expression in human MCF7/ADM cells at 0.25 to 25 uM incubated for 24 hrs by Western blot analysis; type: functional, cell-based; conditions: dose 0.25-25 µM
MCF7/ADM [9] = assay: Antitumor activity against human MCF7/ADM cells xenografted in BALB/c mouse assessed as increase in GRP78 expression in tumor at 50 mg/kg, ip by Western blot analysis; type: functional, organism-based
[10] = Toxicity in BALB/c mouse xenografted with human MCF7/ADM cells assessed as lung damage at 50 mg/kg, ip by H and E staining based analysis; type: organism-based; conditions: in vivo
[11] = Toxicity in BALB/c mouse xenografted with human MCF7/ADM cells assessed as change in HGB level at 50 mg/kg, ip; type: organism-based; conditions: in vivo
[12] = target: T2, von Hippel-Lindau disease tumor suppressor/Phosphatidylinositol 4,5-bisphosphate 3-kinase catalytic subunit beta isoform (Homo sapiens, UniProt P42338+P40337); assay: PROTAC activity at PI3K-p110beta/VHL in human A549/DDP cells assessed as induction of PI3K-p110beta degradation at 25 uM measured for 24 hrs in presence of TGX221 by Western blot analysis; type: cell-based
MCF7/ADM [13] = assay: Upregulation of ATF4 expression in human MCF7/ADM cells at 0.25 to 25 uM incubated for 24 hrs by Western blot analysis; type: functional, cell-based; conditions: dose 0.25-25 µM
[14] = target: von Hippel-Lindau disease tumor suppressor/Phosphatidylinositol 4,5-bisphosphate 3-kinase catalytic subunit alpha isoform (Homo sapiens, UniProt P42336+P40337); assay: PROTAC activity at PI3K-p110alpha/VHL in human A549/DDP cells assessed as induction of PI3K-p110alpha degradation incubated for 24 hrs by Western blot analysis; type: cell-based; conditions: for Activity: dose 0.04-50 µM
[15] = target: T2, von Hippel-Lindau disease tumor suppressor/Phosphatidylinositol 4,5-bisphosphate 3-kinase catalytic subunit beta isoform; assay: PROTAC activity at PI3K-p110beta/VHL in human A549/DDP cells assessed as induction of PI3K-p110beta degradation at 25 uM measured for 24 hrs in presence of MG132 by Western blot analysis; type: cell-based
[16] = Toxicity in BALB/c mouse xenografted with human MCF7/ADM cells assessed as body weight loss at 50 mg/kg, ip; type: organism-based; conditions: in vivo
[17] = Toxicity in BALB/c mouse xenografted with human MCF7/ADM cells assessed as spleen damage at 50 mg/kg, ip by H and E staining based analysis; type: organism-based; conditions: in vivo
[18] = Toxicity in BALB/c mouse xenografted with human MCF7/ADM cells assessed as liver damage at 50 mg/kg, ip by H and E staining based analysis; type: organism-based; conditions: in vivo
A549/CDDP [19] = assay: Induction of apoptosis in human A549/DDP cells assessed as increase in cleaved caspase-9 expression at 12.5 uM incubated for 24 hrs by Western blot analysis; type: functional, cell-based
[20] = target: T2, von Hippel-Lindau disease tumor suppressor/Phosphatidylinositol 4,5-bisphosphate 3-kinase catalytic subunit beta isoform; assay: PROTAC activity at PI3K-p110beta/VHL in human MCF7/ADM cells assessed as reduction in PI3K-p110beta level by Western blot analysis; type: cell-based; conditions: time <= 48.0 hrs
[21] = Toxicity in BALB/c mouse xenografted with human MCF7/ADM cells assessed as change in ALT level at 50 mg/kg, ip; type: organism-based; conditions: in vivo
[22] = Toxicity in BALB/c mouse xenografted with human MCF7/ADM cells assessed as change in creatinine level at 50 mg/kg, ip; type: organism-based; conditions: in vivo
A549/CDDP [23] = assay: Induction of apoptosis in human A549/DDP cells assessed as decrease in bcl-2 expression at 12.5 uM incubated for 24 hrs by Western blot analysis; type: functional, cell-based
A549/CDDP [24] = assay: Upregulation of PTEN expression in human A549/DDP cells at 25 uM incubated for 24 hrs by Western blot analysis; type: functional, cell-based
A549/CDDP [25] = assay: Induction of apoptosis in human A549/DDP cells assessed as increase in caspase-9 expression at 12.5 uM incubated for 24 hrs by Western blot analysis; type: functional, cell-based
[26] = target: T1, ATP-dependent translocase ABCB1; assay: Inhibition of P-gp in human MCF7/ADM cells at 6.25 to 25 uM incubated for 24 hrs; type: cell-based; conditions: dose 6.25-25 µM
[27] = Antitumor activity against human MCF7/ADM cells assessed as cell viability incubated for 24 hrs by MTT assay; type: functional, cell-based
A549/CDDP [28] = assay: Induction of apoptosis in human A549/DDP cells assessed as increase in caspase-3 expression at 12.5 uM incubated for 24 hrs by Western blot analysis; type: functional, cell-based
[29] = target: T2, von Hippel-Lindau disease tumor suppressor/Phosphatidylinositol 4,5-bisphosphate 3-kinase catalytic subunit beta isoform; assay: PROTAC activity at PI3K-p110beta/VHL in human A549/DDP cells assessed as reduction in PI3K-p110beta level incubated for 2 hrs by Western blot analysis; type: cell-based
A549/CDDP [30] = assay: Activation of unfolded protein response in human A549/DDP cells at 25 uM incubated for 24 hrs by PROTEOSTATR aggresome dye based fluorescent microscopy; type: functional, cell-based
MCF7/ADM [31] = assay: Downregulation of p-gp level in human MCF7/ADM cells at 6.25 to 25 uM incubated for 24 hrs; type: functional, cell-based; conditions: dose 6.25-25 µM
[32] = Toxicity in BALB/c mouse xenografted with human MCF7/ADM cells assessed as change in BUN level at 50 mg/kg, ip; type: organism-based; conditions: in vivo
[33] = target: T1, ATP-dependent translocase ABCB1; assay: Inhibition of P-gp in human MCF7/ADM cells assessed as increase in intracellular adriamycin accumulation at 6.25 to 25 uM incubated for 24 hrs by flow cytometry analysis; type: cell-based; conditions: dose 6.25-25 µM
[34] = target: T2, von Hippel-Lindau disease tumor suppressor/Phosphatidylinositol 4,5-bisphosphate 3-kinase catalytic subunit beta isoform; assay: PROTAC activity at PI3K-p110beta/VHL in human A549/DDP cells assessed as induction of PI3K-p110beta degradation at 0.04 to 50 uM by Western blot analysis; type: cell-based; conditions: dose 0.04-50 µM, time 24.0 hrs
MCF7/ADM [35] = assay: Antitumor activity against human MCF7/ADM cells xenografted in BALB/c mouse assessed as decrease in cleaved caspase-8 expression in tumor at 50 mg/kg, ip by Western blot analysis; type: functional, organism-based

T1 sequence (P08183 whole entry): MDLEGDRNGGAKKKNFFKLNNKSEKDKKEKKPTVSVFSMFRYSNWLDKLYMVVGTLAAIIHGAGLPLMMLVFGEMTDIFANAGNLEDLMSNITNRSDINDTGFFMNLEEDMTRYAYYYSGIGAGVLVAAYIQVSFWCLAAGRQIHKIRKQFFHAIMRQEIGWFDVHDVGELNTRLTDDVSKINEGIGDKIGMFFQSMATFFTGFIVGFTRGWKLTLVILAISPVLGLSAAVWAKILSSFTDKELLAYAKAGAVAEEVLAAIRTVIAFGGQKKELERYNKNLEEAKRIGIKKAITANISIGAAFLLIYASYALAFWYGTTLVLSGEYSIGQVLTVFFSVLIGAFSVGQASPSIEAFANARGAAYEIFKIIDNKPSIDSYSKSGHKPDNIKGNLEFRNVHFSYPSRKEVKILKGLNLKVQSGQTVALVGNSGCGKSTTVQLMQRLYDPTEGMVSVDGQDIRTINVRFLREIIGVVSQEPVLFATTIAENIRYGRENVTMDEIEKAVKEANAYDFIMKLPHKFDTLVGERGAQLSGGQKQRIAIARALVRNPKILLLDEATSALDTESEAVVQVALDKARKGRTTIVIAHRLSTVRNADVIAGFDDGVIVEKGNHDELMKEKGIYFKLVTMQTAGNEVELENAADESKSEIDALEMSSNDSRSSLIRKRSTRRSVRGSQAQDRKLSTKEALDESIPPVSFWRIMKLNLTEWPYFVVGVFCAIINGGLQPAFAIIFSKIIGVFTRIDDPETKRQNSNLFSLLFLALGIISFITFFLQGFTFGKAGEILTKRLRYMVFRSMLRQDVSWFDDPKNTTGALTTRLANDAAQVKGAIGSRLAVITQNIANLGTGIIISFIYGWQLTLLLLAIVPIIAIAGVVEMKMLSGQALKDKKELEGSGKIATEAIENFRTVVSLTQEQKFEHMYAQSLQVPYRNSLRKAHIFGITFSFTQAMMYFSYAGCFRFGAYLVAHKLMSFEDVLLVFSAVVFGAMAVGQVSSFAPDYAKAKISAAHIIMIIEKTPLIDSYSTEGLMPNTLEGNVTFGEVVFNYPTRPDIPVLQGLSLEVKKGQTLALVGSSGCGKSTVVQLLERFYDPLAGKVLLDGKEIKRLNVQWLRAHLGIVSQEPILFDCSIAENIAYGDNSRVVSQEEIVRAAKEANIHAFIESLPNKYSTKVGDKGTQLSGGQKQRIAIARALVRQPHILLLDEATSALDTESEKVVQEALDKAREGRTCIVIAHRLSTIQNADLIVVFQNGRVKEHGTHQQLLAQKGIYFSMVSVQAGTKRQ
T2 sequence (P40337 whole entry, looked up, canonical isoform): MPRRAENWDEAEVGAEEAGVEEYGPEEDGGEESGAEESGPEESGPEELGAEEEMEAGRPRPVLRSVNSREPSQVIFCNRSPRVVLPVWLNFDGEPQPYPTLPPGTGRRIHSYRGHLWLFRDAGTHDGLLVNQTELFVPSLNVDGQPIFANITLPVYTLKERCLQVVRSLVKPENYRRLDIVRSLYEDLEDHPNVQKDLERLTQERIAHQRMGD
T2 sequence (P42338 whole entry, looked up, canonical isoform): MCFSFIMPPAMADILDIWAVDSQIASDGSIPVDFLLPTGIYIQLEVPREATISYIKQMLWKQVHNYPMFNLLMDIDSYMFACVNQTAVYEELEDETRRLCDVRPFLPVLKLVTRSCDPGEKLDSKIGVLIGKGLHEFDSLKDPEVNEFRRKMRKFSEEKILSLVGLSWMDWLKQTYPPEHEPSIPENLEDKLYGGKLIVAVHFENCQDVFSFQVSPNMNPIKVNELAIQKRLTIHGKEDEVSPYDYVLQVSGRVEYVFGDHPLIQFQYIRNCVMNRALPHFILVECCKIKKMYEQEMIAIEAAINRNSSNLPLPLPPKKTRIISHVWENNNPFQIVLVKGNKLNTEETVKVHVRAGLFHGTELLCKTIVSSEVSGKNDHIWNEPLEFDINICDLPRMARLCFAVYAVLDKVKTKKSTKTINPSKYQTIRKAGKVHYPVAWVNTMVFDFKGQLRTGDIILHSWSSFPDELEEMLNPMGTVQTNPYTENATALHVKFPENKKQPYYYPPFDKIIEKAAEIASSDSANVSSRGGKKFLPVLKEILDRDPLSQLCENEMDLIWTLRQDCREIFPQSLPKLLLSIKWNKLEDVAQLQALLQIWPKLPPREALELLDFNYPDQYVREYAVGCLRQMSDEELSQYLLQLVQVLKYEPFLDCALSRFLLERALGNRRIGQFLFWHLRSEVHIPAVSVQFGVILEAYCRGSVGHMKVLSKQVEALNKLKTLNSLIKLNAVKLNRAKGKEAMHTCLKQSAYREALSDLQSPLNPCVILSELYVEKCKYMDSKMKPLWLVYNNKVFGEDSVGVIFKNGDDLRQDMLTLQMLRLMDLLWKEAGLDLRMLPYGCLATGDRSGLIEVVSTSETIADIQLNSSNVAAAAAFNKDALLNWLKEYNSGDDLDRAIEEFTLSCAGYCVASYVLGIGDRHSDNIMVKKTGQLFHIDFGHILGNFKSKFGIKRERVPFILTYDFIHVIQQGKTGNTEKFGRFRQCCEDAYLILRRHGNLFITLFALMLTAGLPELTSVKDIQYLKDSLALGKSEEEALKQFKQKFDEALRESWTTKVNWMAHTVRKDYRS

SMILES | Activity (MCF7/ADM [1]) | Activity (MCF7/ADM [2]) | Activity (A549/CDDP [3]) | Activity (MCF7/ADM [4]) | Activity (MCF7/ADM [5]) | Activity [6] | inhibition (INH) [7] | Activity (MCF7/ADM [8]) | Activity (MCF7/ADM [9]) | Activity [10] | Activity [11] | Activity [12] | Activity (MCF7/ADM [13]) | Activity [14] | Activity [15] | Activity [16] | Activity [17] | Activity [18] | Activity (A549/CDDP [19]) | Activity [20] | also measured
Cc1cc(C(C)Nc2ccccc2C(=O)NCCCCCCC(=O)N[C@H](C(=O)N2C[C@H](O)C[C@H]2C(=O)NCc2ccc(-c3scnc3C)cc2)C(C)(C)C)c2nc(N3CCOCC3)cc(=O)n2c1 (stereo partly specified) | Active | Active | Active | Active | Active | Non-toxic | Active | Active | Active | Non-toxic | Non-toxic | inactive | Active | Dose-dependent-effect | Active | Non-toxic | Non-toxic | Non-toxic | Active | Time-dependent-effect | DC50 [14]: > 30 µM; Activity [21]: Non-toxic; Activity [22]: Non-toxic; Activity (A549/CDDP [23]): Active; Activity (A549/CDDP [24]): Active; Activity (A549/CDDP [25]): Active; inhibition (INH) [26]: Active; IC50 [27]: 38.7 µM; Activity (A549/CDDP [28]): Active; Activity [29]: Active; Activity (A549/CDDP [30]): Active; Activity (MCF7/ADM [31]): Active; Activity [32]: Non-toxic; inhibition (INH) [33]: Active; Activity [34]: Time-dependent-effect; Activity (MCF7/ADM [35]): Active
Cc1cc(C(C)Nc2ccccc2C(=O)NCCOCCOCCC(=O)N[C@H](C(=O)N2C[C@H](O)C[C@H]2C(=O)NCc2ccc(-c3scnc3C)cc2)C(C)(C)C)c2nc(N3CCOCC3)cc(=O)n2c1 (stereo partly specified) | Active | Active | Active | Active | Active | Non-toxic | Active | Active | Active | Non-toxic | Non-toxic | inactive | Active | Dose-dependent-effect | Active | Non-toxic | Non-toxic | Non-toxic | Active | Time-dependent-effect | Activity [21]: Non-toxic; Activity [22]: Non-toxic; Activity (A549/CDDP [23]): Active; Activity (A549/CDDP [24]): Active; Activity (A549/CDDP [25]): Active; inhibition (INH) [26]: Active; IC50 [27]: 30.2 µM; Activity (A549/CDDP [28]): Active; Activity [29]: Active; Activity (A549/CDDP [30]): Active; Activity (MCF7/ADM [31]): Active; Activity [32]: Non-toxic; inhibition (INH) [33]: Active; Activity [34]: Time-dependent-effect; Activity (MCF7/ADM [35]): Active
